From patent USRE48461E1, “Modulation of androgen receptor expression” (Ionis Pharmaceuticals, Inc., priority 2012, dated 2021)

Tests used:
[1] = test system: prostate-specific antigen (PSA) mRNA; assay: PSA mRNA levels in LMR20 cells; format: cell-based, human; conditions: with or without DHT/R1881
Description: LMR20 cells were plated at 1,500 cells per well in phenol red-free medium with CSS. […] Results are presented in Tables 43-45 as mRNA levels expressed as a percentage of the baseline values. mRNA levels may be lowered or increased after treatment.

[2] = test system: AR mRNA; assay: AR RNA expression in C4-2 cells (complete, CSS+DHT medium); format: cell-based, human; conditions: 48 hrs; for Percent expression of AR: C4-2 cells, CSS + DHT medium
Description: Cells were plated at 1,000 cells per well. […] After an incubation period of 48 hrs, RNA levels of AR, PSA and TMPRSS2 were measured.
Cells were plated at 2,000 cells per well and cultured in CSS media with 1 nM DHT. […] After an incubation period of 48 hrs, RNA levels of AR, PSA and TMPRSS2 were measured.

[3] = test system: TMPRSS2 mRNA; assay: TMPRSS2 expression in VCaP cells; format: cell-based, human; conditions: RNAiMax, 48 hrs
[4] = test system: MDA-MB-453 tumor; assay: Tumor volume in MDA-MB-453 breast cancer orthotopic model; format: in vivo, NSG mice; conditions: Study 2, MDA-MB-453 model, NSG mice, 50 mg/kg s.c. 5 days per week for 2 weeks
[5] = test system: PSA mRNA; assay: PSA expression in C4-2B cells (Example 30); format: cell-based, human; conditions: 48 hrs
In short: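 C4-2B cells were plated at 1,000 cells per well in complete medium, or at 2,000 cells per well in CSS medium with 1 nM DHT. ISIS 549148 served as the negative control. AR, PSA and TMPRSS2 RNA levels were measured after 48 hrs.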

[6] = test system: 22RV1 cells; assay: 22RV1 cell proliferation, ASO in combination with MDV3100 (Example 22); format: cell-based, human; conditions: for Proliferation (% untreated control) in 22RV1 without MDV-3100: RNAiMAX, 3 days
In short: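 Cells seeded at 2,000 per well in 5% CSS medium for 48 h, then treated for 3 days. Proliferation read with a tetrazolium (CellTiter 96 AQueous One) kit and given as percent inhibition relative to untreated cells.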

[7] = test system: LMR20 cells; assay: Proliferation of MDV3100-resistant LMR20 cells (MTT; with R1881 or DHT); format: cell-based, human; conditions: 5 days
In short: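 Cells were held in phenol red-free medium with charcoal-stripped FBS and given antisense oligonucleotides plus 1 nM R1881 or 10 nM DHT from day 1. Proliferation was read by MTT after 5 days of treatment and reported as percent inhibition against non-treated cells.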

[8] = test system: cleaved PARP; assay: Cleaved PARP western blot in VCaP cells; format: cell-based, human

TTGATTTAATGGTTGC [ISIS 560131] (MOE and (S)-cEt gapmer chemistry, further chemistry not given here) [targets intron 1]
PSA mRNA levels in LMR20 cells [1]: reduced PSA levels and TMPRSS2 more extensively than the LNA gapmer ISIS 554221 or MDV3100
Percent expression of AR ([2]; 0.04 μM): 88%
Percent expression of AR ([2]; 0.2 μM): 57%
Percent expression of AR ([2]; 1 μM): 20%
Percent expression of AR ([2]; 5.0 μM): 15%
Percent expression of AR in C4-2 cells cultured in complete medium ([2]; 0.04 μM): 48%
Percent expression of AR in C4-2 cells cultured in complete medium ([2]; 0.2 μM): 13%
Percent expression of AR in C4-2 cells cultured in complete medium ([2]; 1 μM): 8%
Percent expression of AR in C4-2 cells cultured in complete medium ([2]; 5.0 μM): 8%
Percent inhibition of TMPRSS2 expression ([3]; CSS + DHT medium, 1.34 nM): 0%
Percent inhibition of TMPRSS2 expression ([3]; CSS + DHT medium, 4.0 nM): 21%
Percent inhibition of TMPRSS2 expression ([3]; CSS + DHT medium, 13.4 nM): 49%
Percent inhibition of TMPRSS2 expression ([3]; CSS + DHT medium, 40 nM): 57%
Percent inhibition of TMPRSS2 expression ([3]; complete medium, 1.34 nM): 0%
Percent inhibition of TMPRSS2 expression ([3]; complete medium, 4.0 nM): 0%
Percent inhibition of TMPRSS2 expression ([3]; complete medium, 13.4 nM): 0%
Percent inhibition of TMPRSS2 expression ([3]; complete medium, 40 nM): 4%
Tumor volumes ([4]; Day 0): 144
Tumor volumes ([4]; Day 8): 261
Tumor volumes ([4]; Day 13): 243
Tumor volumes ([4]; Day 20): 204
Tumor volumes ([4]; Day 23): 232
Tumor volumes ([4]; Day 27): 233
Tumor volumes ([4]; Day 29): 258
Percent inhibition of PSA expression ([5]; CSS + DHT medium, 0.04 μM): 0%
Percent inhibition of PSA expression ([5]; CSS + DHT medium, 0.2 μM): 17%
Percent inhibition of PSA expression ([5]; CSS + DHT medium, 1 μM): 50%
Percent inhibition of PSA expression ([5]; CSS + DHT medium, 5.0 μM): 61%
Percent inhibition of PSA expression ([5]; complete medium, 0.04 μM): 56%
Percent inhibition of PSA expression ([5]; complete medium, 0.2 μM): 84%
Percent inhibition of PSA expression ([5]; complete medium, 1 μM): 89%
Percent inhibition of PSA expression ([5]; complete medium, 5.0 μM): 92%
synergy with MDV3100 ([6]; 22RV1 cells): synergistic with MDV3100
cell proliferation inhibited, combination ([6]; 22RV1 cells, 1.34 nM ASO in combination with 1.0 μM MDV3100): 23%
inhibited cell proliferation, ASO alone ([6]; 22RV1 cells, ASO alone at 1.34 nM): 3%
Proliferation (% untreated control) in 22RV1 cells with 0.04 μM MDV-3100 ([6]; ASO dose 0.4 nM + 0.04 μM MDV-3100): 96 % untreated control
Proliferation (% untreated control) in 22RV1 cells with 0.2 μM MDV-3100 ([6]; ASO dose 0.4 nM + 0.2 μM MDV-3100): 95 % untreated control
Proliferation (% untreated control) in 22RV1 cells with 1.0 μM MDV-3100 ([6]; ASO dose 0.4 nM + 1.0 μM MDV-3100): 96 % untreated control
Proliferation (% untreated control) in 22RV1 cells with 5.0 μM MDV-3100 ([6]; ASO dose 0.4 nM + 5.0 μM MDV-3100): 91 % untreated control
Proliferation (% untreated control) in 22RV1 without MDV-3100 ([6]; ASO dose 0.4 nM): 103 % untreated control
Proliferation (% untreated control) in 22RV1 cells with 0.04 μM MDV-3100 ([6]; ASO dose 1.34 nM + 0.04 μM MDV-3100): 80 % untreated control
Proliferation (% untreated control) in 22RV1 cells with 0.2 μM MDV-3100 ([6]; ASO dose 1.34 nM + 0.2 μM MDV-3100): 90 % untreated control
Proliferation (% untreated control) in 22RV1 cells with 1.0 μM MDV-3100 ([6]; ASO dose 1.34 nM + 1.0 μM MDV-3100): 77 % untreated control
Proliferation (% untreated control) in 22RV1 cells with 5.0 μM MDV-3100 ([6]; ASO dose 1.34 nM + 5.0 μM MDV-3100): 76 % untreated control
Proliferation (% untreated control) in 22RV1 without MDV-3100 ([6]; ASO dose 1.34 nM): 97 % untreated control
Proliferation (% untreated control) in 22RV1 cells with 0.04 μM MDV-3100 ([6]; ASO dose 4.0 nM + 0.04 μM MDV-3100): 65 % untreated control
Proliferation (% untreated control) in 22RV1 cells with 0.2 μM MDV-3100 ([6]; ASO dose 4.0 nM + 0.2 μM MDV-3100): 76 % untreated control
Proliferation (% untreated control) in 22RV1 cells with 1.0 μM MDV-3100 ([6]; ASO dose 4.0 nM + 1.0 μM MDV-3100): 63 % untreated control
Proliferation (% untreated control) in 22RV1 cells with 5.0 μM MDV-3100 ([6]; ASO dose 4.0 nM + 5.0 μM MDV-3100): 63 % untreated control
Proliferation (% untreated control) in 22RV1 without MDV-3100 ([6]; ASO dose 4.0 nM): 77 % untreated control
Proliferation (% untreated control) in 22RV1 cells with 0.04 μM MDV-3100 ([6]; ASO dose 13.4 nM + 0.04 μM MDV-3100): 39 % untreated control
Proliferation (% untreated control) in 22RV1 cells with 0.2 μM MDV-3100 ([6]; ASO dose 13.4 nM + 0.2 μM MDV-3100): 51 % untreated control
Proliferation (% untreated control) in 22RV1 cells with 1.0 μM MDV-3100 ([6]; ASO dose 13.4 nM + 1.0 μM MDV-3100): 40 % untreated control
Proliferation (% untreated control) in 22RV1 cells with 5.0 μM MDV-3100 ([6]; ASO dose 13.4 nM + 5.0 μM MDV-3100): 41 % untreated control
Proliferation (% untreated control) in 22RV1 without MDV-3100 ([6]; ASO dose 13.4 nM): 57 % untreated control
Percent inhibition of LMR20 cell proliferation ([7]; CSS + DHT, ASO 0.04 μM): 0%
Percent inhibition of LMR20 cell proliferation ([7]; CSS + DHT, ASO 0.20 μM): 13%
Percent inhibition of LMR20 cell proliferation ([7]; CSS + DHT, ASO 1.0 μM): 57%
Percent inhibition of LMR20 cell proliferation ([7]; CSS + DHT, ASO 5.0 μM): 71%
Percent inhibition of LMR20 cell proliferation ([7]; CSS + R1881, ASO 0.04 μM): 0%
Percent inhibition of LMR20 cell proliferation ([7]; CSS + R1881, ASO 0.20 μM): 13%
Percent inhibition of LMR20 cell proliferation ([7]; CSS + R1881, ASO 1.0 μM): 55%
Percent inhibition of LMR20 cell proliferation ([7]; CSS + R1881, ASO 5.0 μM): 70%
Percent inhibition of LMR20 cell proliferation ([7]; CSS, ASO 0.04 μM): 0%
Percent inhibition of LMR20 cell proliferation ([7]; CSS, ASO 0.20 μM): 0%
Percent inhibition of LMR20 cell proliferation ([7]; CSS, ASO 1.0 μM): 9%
Percent inhibition of LMR20 cell proliferation ([7]; CSS, ASO 5.0 μM): 16%
LMR20 cell proliferation ([7]; in the presence of R1881 or DHT, 0.04-5.0 μM): significantly inhibited MDV3100-resistant prostate cancer cell proliferation in a dose dependent manner more extensively than ISIS 554221
cleaved PARP levels (western blot) [8]: increased in a dose-dependent manner
